Legend:
Format in all cases: in vivo
Abutilon theophrasti = assay: Glasshouse assay for herbicidal activity, post-emergence, ABUTH; conditions: Abutilon theophrasti, 312 h, 250 g/ha, visual 13 days after application, 100%=total damage, read-out: Percentage phytotoxicity ABUTH
Description: (§1) Seeds of a variety of test plant species were sown in standard soil ** in pots. After cultivation for one day (pre-emergence) or after 8 days cultivation (post-emergence) under controlled conditions in a glasshouse (at 24/16° C., day/night; 14 hours light; 65% humidity), the plants were sprayed with an aqueous spray solution derived from the formulation of the technical active ingredient (the test herbicide) in acetone/water (50:50) solution containing 0.5% Tween 20 (polyoxyethylene sorbitan monolaurate, CAS Reg. No. 9005-64-5). The test plants were then grown on under controlled conditions in a glasshouse (at 24/16° C., day/night; 14 hours light; 65% humidity) and watered twice daily. 13 Days after application of the test herbicide, for pre- and post-emergence, the test was evaluated visually for percentage phytotoxicity to each plant (where 100%=total damage to plant; 0%=no damage to plant). Generally, each test herbicide is only tested on 1 plant per plant species for each application rate tested and for each application timing. The “standard soil” in Biological Example 1 is usually a “sand” or “sandy loam” type of soil. Biological Example 1—Post-Emergence Application—Herbicidal Activity Results (Percentage Phytotoxicity) Dicotyledonous weeds: ABUTH=Abutilon theophrasti; AMARE=Amaranthus retroflexus. Grassy monocotyledonous weeds: SETFA=Setaria faberi; ALOMY=Alopecurus myosuroides; ECHCG=Echinochloa crus-galli; ZEAMX=Zea mays (corn, maize, e.g. volunteer corn).

Amaranthus retroflexus = assay: Glasshouse assay for herbicidal activity, post-emergence, AMARE; conditions: Amaranthus retroflexus, 312 h, 250 g/ha, visual 13 days after application, 100%=total damage, read-out: Percentage phytotoxicity AMARE
Description: as §1

Setaria faberi = assay: Glasshouse assay for herbicidal activity, post-emergence, SETFA; conditions: Setaria faberi, 312 h, 250 g/ha, visual 13 days after application, 100%=total damage, read-out: Percentage phytotoxicity SETFA
Description: as §1

Alopecurus myosuroides = assay: Glasshouse assay for herbicidal activity, post-emergence, ALOMY; conditions: Alopecurus myosuroides, 312 h, 250 g/ha, visual 13 days after application, 100%=total damage, read-out: Percentage phytotoxicity ALOMY
Description: as §1

Echinochloa crus-galli = assay: Glasshouse assay for herbicidal activity, post-emergence, ECHCG; conditions: Echinochloa crus-galli, 312 h, 250 g/ha, visual 13 days after application, 100%=total damage, read-out: Percentage phytotoxicity ECHCG
Description: as §1

[1] = system: Zea mays (corn, maize, e.g. volunteer corn); assay: Glasshouse assay for herbicidal activity, post-emergence, ZEAMX; conditions: Zea mays, 312 h, 250 g/ha, visual 13 days after application, 100%=total damage, read-out: Percentage phytotoxicity ZEAMX
Description: as §1

SMILES | pest or weed control at 250 g/ha (Abutilon theophrasti) [%] | pest or weed control at 250 g/ha (Amaranthus retroflexus) [%] | pest or weed control at 250 g/ha (Setaria faberi) [%] | pest or weed control at 250 g/ha (Alopecurus myosuroides) [%] | pest or weed control at 250 g/ha (Echinochloa crus-galli) [%] | pest or weed control at 250 g/ha [1] [%]
CC#Cc1ccc(C2=C(OC(C)=O)C3CCC(C3)C2=O)c(OC)c1 (stereo not drawn) [Compound P1, [3-(2-methoxy-4-prop-1-ynyl-phenyl)-4-oxo-2-bicyclo[3.2.1]oct-2-enyl] acetate] | 10 | 20 | 90 | 100 | 100 | 100
C#CCOC1=C(c2ccc(C#CC)cc2OC)C(=O)C2CCC1C2 (stereo not drawn) [Compound P2, 3-(2-methoxy-4-prop-1-ynyl-phenyl)-2-prop-2-ynoxy-bicyclo[3.2.1]oct-2-en-4-one] | 0 | 0 | 80 | 70 | 90 | 100
C=CCOC1=C(c2ccc(C#CC)cc2OC)C(=O)C2CCC1C2 (stereo not drawn) [Compound P3] | 0 | 10 | 90 | 70 | 100 | 100
CC#Cc1ccc(C2=C(OCOC)C3CCC(C3)C2=O)c(OC)c1 (stereo not drawn) [Compound P4] | 10 | 0 | 100 | 100 | 100 | 100
CC#Cc1ccc(C2=C(OC(=O)c3ccc(F)cc3)C3CCC(C3)C2=O)c(OC)c1 (stereo not drawn) [Compound P5] | 50 | 30 | 90 | 90 | 100 | 100
CC#Cc1ccc(C2=C(OC(=O)CC)C3CCC(C3)C2=O)c(OC)c1 (stereo not drawn) [Compound P6] | 60 | 40 | 90 | 90 | 100 | 100
CC#Cc1ccc(C2=C(OC(=O)OC)C3CCC(C3)C2=O)c(OC)c1 (stereo not drawn) [Compound P7] | 40 | 30 | 90 | 90 | 100 | 100
CC#Cc1ccc(C2=C(OC(=O)OCC)C3CCC(C3)C2=O)c(OC)c1 (stereo not drawn) [Compound P8] | 60 | 20 | 90 | 90 | 100 | 100
CC#Cc1ccc(C2=C(OC(=O)C(C)C)C3CCC(C3)C2=O)c(OC)c1 (stereo not drawn) [Compound P10] | 70 | 40 | 90 | 90 | 100 | 100
CC#Cc1ccc(C2=C(OC(=O)C(C)(C)C)C3CCC(C3)C2=O)c(OC)c1 (stereo not drawn) [Compound P11] | 70 | 20 | 100 | 90 | 100 | 100
CC#Cc1ccc(C2=C(OC(=O)c3ccccc3)C3CCC(C3)C2=O)c(OC)c1 (stereo not drawn) [Compound P12] | 70 | 20 | 90 | 100 | 100 | 100
CC#Cc1ccc(C2=C(OC(=O)Sc3ccccc3)C3CCC(C3)C2=O)c(OC)c1 (stereo not drawn) [Compound P13] | 40 | 60 | 100 | 90 | 100 | 100
CC#Cc1ccc(C2=C(OC(=O)SCC)C3CCC(C3)C2=O)c(OC)c1 (stereo not drawn) [Compound P14] | 70 | 20 | 100 | 90 | 100 | 100
CC#Cc1ccc(C2=C(OC(=O)SC(C)C)C3CCC(C3)C2=O)c(OC)c1 (stereo not drawn) [Compound P15] | 70 | 10 | 100 | 90 | 100 | 100
CC#Cc1ccc(C2=C(OS(C)(=O)=O)C3CCC(C3)C2=O)c(OC)c1 (stereo not drawn) [Compound P16] | 40 | 40 | 70 | 80 | 90 | 100
CC#Cc1ccc(C2=C(OS(=O)(=O)CC)C3CCC(C3)C2=O)c(OC)c1 (stereo not drawn) [Compound P17] | 70 | 0 | 80 | 90 | 90 | 100
C=CC(=O)OC1=C(c2ccc(C#CC)cc2OC)C(=O)C2CCC1C2 (stereo not drawn) [Compound P18] | 70 | 30 | 90 | 90 | 100 | 100

From patent US10662138B2, “Herbicidal propynyl-phenyl compounds” (Syngenta Participations AG, priority 2014, dated 2020)
